{"source": "paper PMC12005989", "about": "“Purification, identification, and in silico screening of a multifunctional octapeptide from semen armeniacae glutelin-2 hydrolysates: restraining mechanisms to Keap1 and ACE, stability, and ferrous-transport efficiency” (Frontiers in Nutrition, 2025)", "key": {"[1]": {"assay": "ABTS+ radical quenching, potassium persulfate method", "conditions": "100 μg/mL; mean ± SD, triplicate", "description": "(§1) The free radical quenching ability of samples, including superoxide, 2,2′-hydrazine-bis (3-ethylbenzothiazolin-6-sulfonic acid) diamine salt cation (ABTS^+), and hydroxyl radicals, was determined using the pyrogallol auto-oxidation, potassium persulfate, and β-deoxyribose oxidation methods, according to the same procedures from Tyagi et al. ([6]), Lin et al. ([2]), and Wang et al. ([35]), respectively. Comparison was conducted when the samples were replaced by glutathione (0.1 mg/mL).\nAs described by Wu et al. ([41]), the simulative gastric digestive fluid consisted of sodium chloride (0.18 mol/L), ultrapure water (180 mL), and 0.40 mg/mL of pepsin. The simulation intestinal digestive juice was composed of NaHCO3 (0.625 g/mL), bile salt (3 g/100 mL), pancreatin (0.35 mg/mL), and 180 mL ultrapure water. In a glass triangle flask, 300 mg of the antihypertensive and antioxidant BAG-2H peptides, 60 mL of ultrapure water, and 150 mL of the simulative gastric fluid were mixed thoroughly. The flask was placed at 37°C in an EDZF-C002 thermostatic vibrator with shaking rate of 140 rpm. After 90 min, 180 mL of the simulative intestinal hydrolysis fluid was added and stirred at 37°C for 2 h. […] The ACE inhibition capacity and antioxidant ability of the treated BAG-2H peptides were detected and compared to those of the undigested BAG-2H peptides."}, "[2]": {"system": "Caco-2 cell monolayers", "assay": "Ferrous transport across Caco-2 cell monolayers", "assay_type": "in vitro ADME", "conditions": "Caco-2 transwell, apical to basolateral, chelate 320 μg/mL, 37°C, o-phenanthroline, p < 0.05", "description": "In a 24-well transwell culture plate, Caco-2 cells (0.75 × 10^6 cells/cm^2) were cultivated by Dulbecco’s modified Eagle’s medium that contained fetal bovine serum (20 g/L), streptomycin (1 μg/μL), penicillin (1 μg/μL), and neomycin (1 μg/μL) and refreshed every 48 h. After 12–14 d of incubation at 5% CO2 and 37°C, the transepithelial electrical resistance was more than 400 Ω·cm^2 and a monolayer Caco-2 cell mode was formed. Afterward, the medium was removed, and Hank’s Balanced Salt Solution was added. After 30 min of cultivation at 5% CO2 and 37°C, Hank’s Balanced Salt Solution was removed from the apical side and BAG-2H peptide-ferrous chelates (320 μg/mL) were added and then cultivated at 5% CO2 and 37°C for 150 min. Every 30 min, the o-phenanthroline method was used to quantify the ferrous amounts of cultivate solution in the basolateral side ([38])."}, "[3]": {"molecular_target": "T1, angiotensin-I-converting enzyme (ACE) (Oryctolagus cuniculus, UniProt P12822)", "T1 construct": "Rabbit lungs ACE (0.1 U) was obtained from Sigma-Aldrich (St. Louis, MO, USA); purchased Sigma-Aldrich (St. Louis, MO, USA); host or cells: rabbit lung (tissue-derived)", "T1 sequence (P12822 34-1310)": "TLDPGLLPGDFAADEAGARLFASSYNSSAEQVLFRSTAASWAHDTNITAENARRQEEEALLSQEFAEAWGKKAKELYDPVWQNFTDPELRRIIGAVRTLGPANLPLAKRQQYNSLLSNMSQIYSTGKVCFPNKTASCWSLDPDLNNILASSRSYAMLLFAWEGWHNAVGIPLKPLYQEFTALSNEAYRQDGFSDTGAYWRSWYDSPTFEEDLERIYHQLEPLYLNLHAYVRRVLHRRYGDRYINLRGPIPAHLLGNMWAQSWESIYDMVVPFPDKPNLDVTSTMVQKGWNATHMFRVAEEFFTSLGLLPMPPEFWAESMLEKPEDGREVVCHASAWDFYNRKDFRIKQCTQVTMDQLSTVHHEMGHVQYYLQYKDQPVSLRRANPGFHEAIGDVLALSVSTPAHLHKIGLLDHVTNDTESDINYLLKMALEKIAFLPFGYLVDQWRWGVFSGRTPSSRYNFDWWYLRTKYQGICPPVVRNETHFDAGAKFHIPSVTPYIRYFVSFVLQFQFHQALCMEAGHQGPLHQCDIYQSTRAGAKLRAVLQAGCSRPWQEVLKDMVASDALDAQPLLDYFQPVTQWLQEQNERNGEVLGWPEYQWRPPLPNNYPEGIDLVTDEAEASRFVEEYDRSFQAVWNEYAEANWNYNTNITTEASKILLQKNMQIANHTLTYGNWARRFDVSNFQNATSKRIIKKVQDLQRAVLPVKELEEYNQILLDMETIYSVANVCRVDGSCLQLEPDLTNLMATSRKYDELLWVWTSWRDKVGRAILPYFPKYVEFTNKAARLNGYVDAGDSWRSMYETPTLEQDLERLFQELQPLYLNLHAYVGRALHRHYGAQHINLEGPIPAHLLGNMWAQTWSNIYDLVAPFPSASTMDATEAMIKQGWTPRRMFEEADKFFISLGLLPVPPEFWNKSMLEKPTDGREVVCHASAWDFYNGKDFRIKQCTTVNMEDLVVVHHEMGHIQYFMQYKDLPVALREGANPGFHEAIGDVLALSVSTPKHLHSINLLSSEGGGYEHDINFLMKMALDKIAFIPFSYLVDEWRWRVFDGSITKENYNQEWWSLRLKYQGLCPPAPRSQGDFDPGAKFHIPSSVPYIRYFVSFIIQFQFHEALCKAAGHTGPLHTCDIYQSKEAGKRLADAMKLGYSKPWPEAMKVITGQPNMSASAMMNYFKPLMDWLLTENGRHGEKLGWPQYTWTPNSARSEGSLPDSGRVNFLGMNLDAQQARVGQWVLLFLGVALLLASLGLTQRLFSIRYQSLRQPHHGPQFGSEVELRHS", "assay": "ACE-inhibitory kinetics, Lineweaver–Burk plot", "assay_type": "biochemical, Rabbit", "conditions": "inhibitor 0.011–0.055 mmol/L, HHL 0.13–1.32 mmol/L, Vmax not altered, Km increased", "text": "The hippuric acid method ([50]) was used to measure the samples’ restraining capacity against ACE citing the same procedures from Zheng et al. ([34]). The absorbance of the reaction solution at 228 nm was the hippuric acid content and was proportional to ACE activity; therefore, the restraining capacity of samples toward ACE was defined as the percentage reduction in the absorption at 228 nm between the control and sample groups. In addition, the ACE-inhibitory kinetic by BAG-2H peptides (0.011–0.055 mmol/L) was investigated employing Lineweaver–Burk plot ([36])."}, "[4]": {"assay": "Superoxide radical quenching, pyrogallol auto-oxidation method", "conditions": "100 μg/mL, mean ± SD, triplicate", "description": "as §1\nAs described by Wu et al. ([41]), the simulative gastric digestive fluid consisted of sodium chloride (0.18 mol/L), ultrapure water (180 mL), and 0.40 mg/mL of pepsin. The simulation intestinal digestive juice was composed of NaHCO3 (0.625 g/mL), bile salt (3 g/100 mL), pancreatin (0.35 mg/mL), and 180 mL ultrapure water. In a glass triangle flask, 300 mg of the antihypertensive and antioxidant BAG-2H peptides, 60 mL of ultrapure water, and 150 mL of the simulative gastric fluid were mixed thoroughly. The flask was placed at 37°C in an EDZF-C002 thermostatic vibrator with shaking rate of 140 rpm. After 90 min, 180 mL of the simulative intestinal hydrolysis fluid was added and stirred at 37°C for 2 h. To stop the hydrolysis, the digestion solution in the flask was boiled for 6 min and then cooled by running water to room temperature. The ACE inhibition capacity and antioxidant ability of the treated BAG-2H peptides were detected and compared to those of the undigested BAG-2H peptides."}}, "note": "Ends that are not written are not given here."}
{"substance": "PVDFAGFY-ferrous chelate: ferrous chelate of PVDFAGFY prepared with ferrous chloride (also: ferrous chelate)", "values": [{"measurement": "ABTS+ scavenging activity, before gastrointestinal", "setting": "[1]", "result": "35.18% ± 1.16%c"}, {"measurement": "Ferrous transmembrane absorption across Caco-2 monolayer compared with ferrous chloride", "setting": "[2]; FeCl2 0.3 mg/mL, HBSS, 150 min", "result": "higher than that of ferrous chloride"}, {"measurement": "Ferrous transport across Caco-2 monolayer compared with ferrous lactate, 120–150 min", "setting": "[2]; ferrous lactate 0.3 mg/mL", "result": "better at transporting iron across the monolayer of Caco-2 cells than ferrous lactate"}, {"measurement": "ACE-inhibitory mode", "setting": "[3]", "result": "competitive ACE inhibitor"}, {"measurement": "Superoxide radical scavenging ability, before gastrointestinal", "setting": "[4]", "result": 69.55, "unit": "%"}, {"measurement": "Superoxide radical scavenging ability, before gastrointestinal", "setting": "[4]; listed as PVDFAGFY-Fe", "result": "69.55% ± 3.41%b"}]}
